Values of other authors as cited in patent US20230233522A1, “COMPOSITIONS AND METHODS FOR TREATING EPILEPSY, SEIZURES AND OTHER CONDITIONS” (TULEX PHARMACEUTICALS INC., priority 2019, published 2023).

In the case of `CC1(C)O[C@@H]2[C@@H](CO[C@@]3(COS(N)(=O)=O)OC(C)(C)O[C@@H]23)O1` [Topiramate, 2,3:4,5-Di-O-isopropylidine-β-D-fructopyranose sulfamate], the solubility in water is given as “about 9.8 mg/ml”.
